According to patent US12102672B2, “Immunogenic sequences from a phage tail length tape measure protein, bacteria expressing the same and their use in treating a cancer” (INSTITUT GUSTAVE ROUSSY, priority 2017, dated 2024):

What was measured:
[1] = system: prophage 1 and 2 of EH13144; conditions: mitomycin C 1 μg/ml; 37° C. and 42° C.; without capside disruption
Description: Protocol for phage excision by mitomycin C.
PCR was run to detect specific sequences of the prophage 1 or 2.

[2] = target: HLA-A*0201 with TMP peptide […] on peptide-pulsed autologous cells (human; Enterococcus hirae 13144 (prophage 2, TMP))
[3] = target: HLA-A*0201 with TMP peptide … on peptide-pulsed autologous cells (human; Enterococcus hirae 13144 (prophage 2, TMP))
MCA-205 sarcoma [4] = experiment: MCA-205 sarcoma growth in FMT-treated mice, CTX plus oral gavage with E. hirae strains; assay type: in vivo; conditions: summary of the characteristics of the strains; with CTX, MCA205 sarcoma
Description: FIG. 1. Experimental setting. (A) Mice are treated with broad spectrum antibiotics (streptomycin, colistin, ampicillin and vancomycine) for 3 days before performing Fecal Microbiota Transplantation (FMT). 14 days post-FMT, MCA-205 sarcoma cell lines are inoculated in the right flank of mice (8.10^5 cells per mice). […] (B) Non FMT-treated SPF mice are used as control.
FIG. 2. Dysbiosis by FMT BC patient 1: Effectiveness of E. hirae 13144 to restore CTX-mediated antitumor effects. […] (C) Tumor growth curves of MCA-205 sarcoma in FMT-treated mice after oral gavage with strain E. hirae 13144 or NaCl as control. 2 independent experiments are depicted. (D) Overall survival of FMT-treated, MCA-205 sarcoma bearing mice treated with CTX or NaCl after oral gavage with strain E. hirae 13144. A typical survival curve is depicted for six mice per group. (E) Concatenated data of tumor sizes at day 21 post-CTX from 2 independent experiments are shown.
FIG. 3. […] (C) Tumor growth curves of MCA-205 sarcoma in FMT-treated mice after oral gavage with strain E. hirae 13144 or NaCl as control. 2 independent experiments are depicted. (D) Concatenated data of tumor sizes at day 21 post-CTX from 2 independent experiments are shown.
FIG. 4. […] Tumor growth curves of MCA-205 sarcoma in FMT-treated mice after oral gavage with strain E. hirae 13144 (A), IGR1 (B) or NaCl as control. A typical curve is depicted for six mice per group. (C) Concatenated data of tumor sizes at day 17 post-CTX from 1-2 independent experiments are shown. (D). Comparaison of various strains of E. hirae for their capacity to control tumor growth. […] EH10815 fails to work and that may be related to a mutation residing in TMP2 (see below FIG. 13B).
FIG. 5. […] (A) Tumor surface of MCA-205 sarcoma in FMT-treated mice after oral gavage with strain E. hirae 13144, IGR4, IGR7, Actinomycetes spp (Ao) and injected with 3 cycles of CTX (C) vs NaCl (N). Each dot is one mouse/tumor. (B) Tumor growth curves of MCA-205 sarcoma in SPF mice of the best group, means+SEM of tumor sizes at each time point and tumor sizes at sacrifice (C: CTX). Each dot is one mouse/tumor. Anova statistics indicating significant differences between CTX and the triple combination. (C) Tumor surface of MCA-205 sarcoma in FMT-treated mice after oral gavage with strains EH13144, IGR1, IGR11, Barnesiella or Akkermansia and injected with 3 cycles of CTX. Bacterial strains are used alive (V) or pasteurized (P). For pasteurization, bacteria are incubated 30 min at 70° C. and frozen at −80° C. at least 6 hours.
FIG. 6. […] Tumor growth curves of MCA-205 sarcoma in FMT-treated mice after oral gavage with strain E. hirae 13144 alive (A), pasteurized (B) or NaCl as control. A typical curve is depicted for six mice per group. (C) Concatenated data of tumor sizes at day 17 post-CTX from 3 independent experiments are shown.

MCA-205 sarcoma [5] = experiment: MCA205 sarcoma growth in antibiotic-treated SPF C57BL/6 mice, CTX plus oral gavage with bacteria; assay type: in vivo; conditions: ATB 3 days, CTX 100 mg/kg x3, weekly oral gavages, FIG. 27B
Description: (§1) A and C. Experimental setting. […] D-E. Ex vivo recall assays. […] Each dot represents one mouse.
A-B. Prophylactic vaccinations. […] C-D. Therapeutic settings.
Mice were treated during 3 days with an antibiotic solution (ATB) containing ampicillin (1 mg/ml), streptomycin (5 mg/ml), colistin (1 mg/ml) (Sigma-Aldrich) and vancomycin (0.25 mg/ml) added in the sterile drinking water of mice. Antibiotic activity was confirmed by cultivating fecal pellets resuspended in BHI+15% glycerol at 0.1 g/ml on COS (BD Columbia Agar with 5% Sheep Blood) plates for 48 h at 37° C. in aerobic and anaerobic conditions. In the context of bacterial transplantation experiments, mice received 3 days of ATB before undergoing bacterial transplantation the next day by oral gavage using animal feeding needles.
Syngeneic C57BL/6 mice were implanted with 0.8×10^6 MCA-205 WT sarcoma cells subcutaneously and treated intraperitoneally (i.p.) when tumors reached 20 to 35 mm^2 in size with CTX (100 mg/kg). Depending on the experimental setting, mice were injected once or 3 times at 1-week interval. Tumor size was routinely monitored every 3 days by means of a caliper.
Enterococcus hirae 13144 were originally isolated from spleens of SPF mice treated with CTX in our laboratory.

splenic CD8+ T cells = experiment: IFNγ ELISpot recall assay of splenic CD8+ T cells with DCs pulsed with heat-inactivated bacteria or peptides; assay type: cell-based, mice
Description: FIG. 9. Experimental immunization protocols to elucidate the immunogenicity of EH peptides. […] 5 days after the first oral gavage, mice are treated with CTX. One week post-CTX, CD8+ T cells are isolated from spleen. These CD8+ T cells are incubated with dendritic cells (DCs) pulsed with 20 μg/ml of peptides (during 1 hour) or with heat-inactivated bacteria (during 6 hours). Inactivation of bacteria consists in incubation at 65° C. during 2 hours. After 24 hours of culture, ELIspot of IFNγ is performed.
FIG. 10. Cross-reactivity between the two E. hirae 708 and 13144 species for CTL splenic reactivity. Number of IFNγ spot representing IFNγ-secreting CD8+ T cells after co-culture with DCs pre-incubated with or without heat-inactivated bacteria (708, 13144, EH17 and L. plantarum).
FIG. 13. Peptides from group 7 containing the TMP1 and TMP2 epitopes activate CD8+ T cells from spleen of mice immunized against E. hirae 13144. Number of IFNγ spot, representing IFNγ-secreting CD8+ T cells, after incubation with DCs pulsed with 13 different group of peptide (Table 6). Just group n° 1 (A) and group n° 7 (B) are shown. (C, E) Number of IFNγ spot, representing IFNγ-secreting CD8+ T cells, after incubation with DCs pulsed with 4 peptides belong to group n° 7 (in table 7). (D) Sequence alignment of TMP1 and TMP2 of EH10815 (SEQ ID Nos: 228 and 229 respectively) compared to EH13144 (fragments of SEQ ID NO: 1) at the level of immunogenic peptides. Amino acid sequence […] corresponds to SEQ ID No: 13. Amino acid sequence […] corresponds to SEQ ID No: 217. Amino acid sequence […] corresponds to SEQ ID Nos: 14. Amino acid sequence AlIEFIKGL corresponds to SEQ ID No: 218. (E) In vitro reactivity of splenic CTL in a recall response to TMP1 and TMP2 as well as Group7 after in vivo immunization with other strains of EH.
as §1

pTh17 cells = experiment: Induction of pTh17 cells in secondary lymphoid organs of CTX-treated animals; assay type: in vivo
Excerpt: The reasons for these differences were however unknown, and the inventors pursued their research to identify the factor(s) responsible for the immunogenic properties of the murine strain EH13144 and the human clones IGR4, IGR7 and IGR11, in order to derive new molecules or microorganisms useful in the treatment of cancer.

[6] = system: IFNg producing CD8^+ T (Tc1) cells; conditions: naïve mice; cited from earlier work
[7] = target: fluorescent H-2K^b/[…] (SEQ ID No: 13) tetrameric complex (mouse; Enterococcus hirae 13144 (39.2 kb prophage, TMP)) (UniProt P01901); experiment: flow cytometry with the fluorescent H-2K^b/… tetramer

CO[C@@]12[C@H](COC(N)=O)C3=C(C(=O)C(C)=C(N)C3=O)N1C[C@@H]1N[C@@H]12 [mitomycin C]
prophage 1 and 2 excision from EH13144 [1]: prophage 1 and 2 excision

CD8+ T cells from PBMC of six HLA-A2+ healthy volunteers (cells without a defined receptor)
IFNγ ELISPOT after in vitro stimulation [2]: 50 % of HV | IFNγ ELISPOT after in vitro stimulation [3]: 50 % of HV

Enterococcus hirae 13344 [EH17 (13344), reference compound]
Anti-tumor effect (MCA-205 sarcoma [4]): No | restoration of antibiotic-perturbed anticancer effects of CTX (MCA205 growth) (MCA-205 sarcoma [5]): reduced anticancer effect | memory Tc1 immune response (IFNγ spots) to BM-DC infected with EH isolates (splenic CD8+ T cells; Example 2, FIG. 10, splenic CD8+ T cells after gavage + CTX, ELISPOT at 24 hrs): failed to do so | TC1 response against TMP1 in mice gavaged with the strain (IFNγ ELISpot) (splenic CD8+ T cells; Example 12, FIG. 27E): unable to do so | capacity to induce pTh17 cells in secondary lymphoid organs (pTh17 cells): did not | immunogenic and oncomicrobiotic properties of the isolate [6]: no immunogenic nor oncomicrobiotic properties

splenic CD8+ T cells of mice gavaged with E. hirae 13144 and treated with CTX (cells without a defined receptor)
percentage of splenic CD8+ T cells recognising the tetramer [7]: < 1%
